We go through eight compounds from PubChem BioAssay (NCI).

Among the test systems are SR leukemia; RXF 393 renal; SNB-75 CNS; NCI-H226 lung; HT29 colon; SNB-19 CNS; DU-145 prostate; IGROV1 ovarian; OVCAR-8 ovarian; T-47D breast; SF-295 CNS; SN12C renal; LOX IMVI melanoma; MCF7 breast; HS 578T breast; COLO 205 colon; MDA-MB-435; NCI/ADR-RES ovarian; SK-OV-3 ovarian; BT-549 breast.
What all share (test): NCI tumour cell line growth inhibition, 48 h

Structures are written as SMILES.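 In this assay, cells in 96-well plates receive the compound at five concentrations for 48 hours. Endpoints are linearly interpolated between the surrounding concentrations. TGI is the concentration that stops growth completely.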

Consider `CCOC(=O)CCC(NC(=O)c1ccc(Oc2nc3ccccc3nc2-c2ccccc2)cc1)C(=O)OCC` (stereo not drawn), for which the TGI in the assay on SR leukemia was greater than 100 µM; in the assay on RXF 393 renal, greater than 76.2 µM; in the assay with SNB-75 CNS, 26.2 µM; in the assay with NCI-H226 lung it was 33 µM; with HT29 colon, 10.7 µM; in the assay on SNB-19 CNS it was greater than 77 µM. The TGI in the assay on DU-145 prostate was greater than 100 µM; with IGROV1 ovarian it was greater than 100 µM; in the assay with OVCAR-8 ovarian, 16 µM; in the assay on T-47D breast, greater than 72.1 µM; with SF-295 CNS it was greater than 60.7 µM; with SN12C renal, greater than 100 µM. In addition, the TGI in the assay on LOX IMVI melanoma was greater than 100 µM; in the assay with MCF7 breast, greater than 100 µM; in the assay with HS 578T breast it was 27.3 µM; in the assay on COLO 205 colon, greater than 100 µM; in the assay with MDA-MB-435 it was greater than 100 µM; with NCI/ADR-RES ovarian, 27.7 µM. This compound returned a TGI in the assay on SK-OV-3 ovarian greater than 67.6 µM.
`CO[C@@H]1C[C@H]2[C@@H]3CC[C@H]([C@@H](C)CO)[C@@]3(C)CC[C@@H]2[C@@]2(C)CC[C@H]3C[C@]312`: the TGI with SR leukemia is greater than 100 µM; in the assay on RXF 393 renal it was 45.6 µM; in the assay on SNB-75 CNS it was greater than 100 µM; with NCI-H226 lung, 59.9 µM; with HT29 colon it was 36.2 µM; with SNB-19 CNS, greater than 100 µM. Moreover, the TGI in the assay with DU-145 prostate was greater than 100 µM; in the assay with IGROV1 ovarian, greater than 100 µM; in the assay with OVCAR-8 ovarian it was greater than 100 µM; with T-47D breast, greater than 100 µM; in the assay with SF-295 CNS, 89.2 µM; in the assay with SN12C renal, 77.1 µM. For the same compound, the TGI with LOX IMVI melanoma is 34.6 µM; with MCF7 breast, 31.8 µM; with HS 578T breast, 82.3 µM; in the assay on COLO 205 colon, 31.4 µM; in the assay with MDA-MB-435, greater than 100 µM; in the assay on NCI/ADR-RES ovarian, 93 µM.
As for `CC(NO)/C(=N/O)c1ccco1` (stereo not drawn), the TGI in the assay on SR leukemia, in the assay on RXF 393 renal, with NCI-H226 lung, in the assay on HT29 colon, in the assay on SNB-19 CNS and in the assay with BT-549 breast was greater than 10 µM throughout. Further, the TGI in the assay with DU-145 prostate, with OVCAR-8 ovarian, with T-47D breast, in the assay with SF-295 CNS, in the assay with SN12C renal and in the assay with MCF7 breast was greater than 10 µM in each case. The TGI in the assay on COLO 205 colon, in the assay on MDA-MB-435 and in the assay on NCI/ADR-RES ovarian was greater than 10 µM throughout.
In the case of `O=C1c2ccccc2C(=O)N1CC1S(=O)(=O)OCCOS1(=O)=O`, the TGI in the assay with SR leukemia, in the assay with RXF 393 renal, with SNB-75 CNS, in the assay on NCI-H226 lung, in the assay with HT29 colon and with SNB-19 CNS was greater than 100 µM throughout. Also, the TGI in the assay with DU-145 prostate, in the assay on IGROV1 ovarian, in the assay on OVCAR-8 ovarian, with T-47D breast, with SF-295 CNS and in the assay on SN12C renal was greater than 100 µM throughout. The TGI with LOX IMVI melanoma, with MCF7 breast, with HS 578T breast, with COLO 205 colon, in the assay on MDA-MB-435 and in the assay with NCI/ADR-RES ovarian was greater than 100 µM throughout. This compound gave a TGI in the assay with SK-OV-3 ovarian greater than 100 µM.
In the case of `Cc1ccc(N2C(=O)C=C(C3=C(O)C(=O)N(c4ccc(C)cc4)C3=O)C2=O)cc1`, the TGI in the assay on SR leukemia, in the assay on SNB-75 CNS, in the assay with NCI-H226 lung, with HT29 colon, in the assay with SNB-19 CNS and in the assay with BT-549 breast was greater than 100 µM each time. Besides, the TGI with DU-145 prostate, with IGROV1 ovarian, in the assay with OVCAR-8 ovarian, with T-47D breast, in the assay with SF-295 CNS and in the assay with SN12C renal was greater than 100 µM in each case. The TGI in the assay on LOX IMVI melanoma, in the assay with MCF7 breast, with COLO 205 colon, with MDA-MB-435, in the assay with NCI/ADR-RES ovarian and in the assay on SK-OV-3 ovarian was greater than 100 µM in each case.
Regarding `O=C1CCCCCCCCCCC1CCCCCBr` (stereo not drawn), the TGI in the assay on SR leukemia came out at 44.1 µM; with RXF 393 renal it was 43.8 µM; with SNB-75 CNS it was 49.8 µM; in the assay on NCI-H226 lung it was 40 µM; in the assay with HT29 colon, 95.6 µM; with SNB-19 CNS, 64.7 µM. Besides, the TGI in the assay with DU-145 prostate was greater than 100 µM; in the assay with IGROV1 ovarian, 56.2 µM; in the assay on OVCAR-8 ovarian, greater than 100 µM; with T-47D breast it was 73.9 µM; in the assay with SF-295 CNS, greater than 100 µM; in the assay with SN12C renal, 43.1 µM. The TGI was 37.8 µM with LOX IMVI melanoma; 63.3 µM with MCF7 breast; greater than 100 µM in the assay with HS 578T breast; 35.8 µM in the assay with COLO 205 colon; 97.7 µM with MDA-MB-435; 64.3 µM with NCI/ADR-RES ovarian. The compound further gave a TGI with SK-OV-3 ovarian greater than 100 µM.
Turning to `CC1C/C(=C\c2ccc(OC(=O)C(C)(C)C)cc2)C(=O)/C(=C/c2ccc(OC(=O)C(C)(C)C)cc2)C1` (stereo not drawn), the TGI in the assay with SR leukemia was greater than 100 µM; in the assay with RXF 393 renal, 70.9 µM; with NCI-H226 lung it was 71 µM; in the assay on HT29 colon, greater than 100 µM; in the assay with SNB-19 CNS it was greater than 100 µM; in the assay on DU-145 prostate it was greater than 100 µM. Further, the TGI is 63.3 µM in the assay on IGROV1 ovarian; 86.6 µM in the assay on OVCAR-8 ovarian; greater than 100 µM with T-47D breast; greater than 100 µM with SF-295 CNS; greater than 100 µM in the assay with SN12C renal; greater than 100 µM in the assay on LOX IMVI melanoma. Besides, the TGI in the assay with MCF7 breast, in the assay with HS 578T breast, in the assay with COLO 205 colon, in the assay on MDA-MB-435, in the assay with NCI/ADR-RES ovarian and with SK-OV-3 ovarian was greater than 100 µM each time.
In the case of `Oc1c(Cl)c(Cl)c(O)c(CCNc2ccc3ncccc3c2)c1Cl`, the TGI came to 28 µM in the assay with SR leukemia; 37.7 µM with RXF 393 renal; 33.4 µM with SNB-75 CNS; 88.4 µM in the assay with HT29 colon; 32.3 µM with SNB-19 CNS; 60 µM with DU-145 prostate. Besides, the TGI in the assay on IGROV1 ovarian is 21 µM; in the assay on OVCAR-8 ovarian it was 50.6 µM; with T-47D breast, greater than 100 µM; in the assay with SF-295 CNS, 24.1 µM; with SN12C renal it was 28.9 µM; with MCF7 breast, 30.8 µM. The TGI in the assay on HS 578T breast was 13.1 µM; in the assay with COLO 205 colon it was 89.2 µM; with MDA-MB-435, 18.8 µM; in the assay on NCI/ADR-RES ovarian it was 33.9 µM; with SK-OV-3 ovarian it was 27.6 µM.
